Key:
CDK12 knockout = assay: High content phenotypic CRISPR/Cas9 screen in HUVEC cells: CDK12 knockout phenocopy; assay type: cell-based, human; conditions: wild-type HUVEC cells; machine vision analysis
Source text: (§1) As disclosed herein, numerous small molecules have been investigated for HRD deficient and PARP inhibitor resistant cancers and it was confirmed that E7820 is efficacious alone or in combination with PARP inhibitors in preclinical mouse cancer models. To select E7820 as a potential therapeutic for this disease, a high content phenotypic whole genome arrayed CRISPR/Cas9 screen was developed in HUVEC cells to identify cellular and structural changes associated between the genetic knockout of human genes. This high dimensional biological data set of single gene knockout phenotypes was then compared to the cellular and structural changes arising from the treatment of over 200,000 small molecules in intron-controlled wild-type HUVEC cells. […] RBM39 degraders, such as these aryl sulfonamides, may therefore be used to treat cancers where CDK12 is a suitable therapeutic target, for example, cancers where patients develop resistance to PARP inhibitors or cancers with HRD negative/HR-proficient tumors. Similar to depletion of CDK12, RBM39 degraders may be used to induce a synthetic lethality phenotype when combined with DDR inhibitors such as PARP inhibitors, thus enabling treatment of patients who would not derive benefit from treatment with the DDR inhibitor in the absence of an RBM39 degrader.

[1] = test system: RNA-binding motif protein 39 (RBM39) CRISPR/Cas9 knockout; assay: High content phenotypic CRISPR/Cas9 screen in HUVEC cells: RBM39 knockout phenocopy; assay type: cell-based, human; conditions: wild-type HUVEC cells; machine vision analysis
Source text: as §1

OVCAR3 cells = assay: CellTiter-Glo cell viability assay in OVCAR3 cell line; assay type: cell-based, human; conditions: 72 h
Method: • Cell culture: OVCAR3 is a human ovarian cancer cell line that is BRCA-proficient and HRD negative. Pharmaron in China acquired this cell line for in vitro testing. OVCAR3 human ovarian tumor cells were maintained in vitro with RPMI-1640 (Glutamax)+0.01 mg/ml insulin+20% FBS+1% PS • Cell Seeding: Cells were harvested from flask into cell culture medium and counted. Cells were diluted with culture medium for below cell densities and 8000 OVCAR cells were plated per well in a 384-well plate (PerkinElmer, Cat. #6007680), using electronic multichannel pipette in 40 μL. For the low control wells, 40 μL PBS was added. […] Plates were covered with lid and spun at 1 min/1000 rpm followed by incubation overnight at 37° C., 5% CO2. • Compound Time: SR4835 and THZ531 were dissolved at 10 mM stock solution and diluted in a 3-fold, 9-point diluted series. Cells were treated with 40 nL of SR4835 and THZ531 by plate reformat Echo550 followed by incubation at 37° C. for 72 h in a CO2 incubator. For the high control, 40 nL DMSO was added. • Readout: CellTiter-Glo@ 2.0 Reagent (Promega, G9242) was removed from the fridge and equilibrated at RT(23° C.) for 60 minutes. Plates were removed from the incubator and allowed to equilibrate to room temperature, for at least 15 minutes. 30 μL CellTiter-Glo® 2.0 Reagent was added to the assay plates and allowed to sit for 30 minutes prior to reading. Luminescence signal was read on Envision. • Calculation: Cell viability (% DMSO control) was calculated using the following equation
• Cell culture: OVCAR3 is a human ovarian cancer cell line that is BRCA-proficient and HRD negative. Pharmaron in China acquired this cell line for in vitro testing. OVCAR3 human ovarian tumor cells were maintained in vitro with RPMI-1640 (Glutamax)+0.01 mg/ml insulin+20% FBS. • Cell Seeding: Cells were harvested from flask into cell culture medium and counted. Cells were diluted with culture medium for below cell densities and 8000 OVCAR cells were plated per well in a 384-well plate (PerkinElmer, Cat. #6007680), using electronic multichannel pipette in 50 μL For the low control wells, 50 μL PBS was added. […] Cells were treated with E7820 and indisulam by plate reformat Echo software and spun 1 min/1000 rpm followed by incubation at 37° C. for 72 h in a CO2 incubator. • Readout: CellTiter-Glo@ 2.0 Reagent (Promega, G9242) was removed from the fridge and equilibrated at RT (23° C.) for 60 minutes. […] 40 μL CellTiter-Glo® 2.0 Reagent was added to the assay plates, and spun 1 min/1000 rpm, then allowed to sit for 20 minutes prior to reading. Luminescence signal was read on Envision. • Calculation: Cell viability (% DMSO control) was calculated using the following equation

CDK12+Cyclin K = target: T1, CDK12+Cyclin K (Homo sapiens, UniProt Q9NYV4); assay: NanoBRET target engagement intracellular kinase assay in HEK293; assay type: cell-based; conditions: HEK293 cells transfected with CDK12-NanoLuc and CCNK; up to 10 μM
T1 construct: host or cells: HEK293 (transient transfection, FuGENE HD)
Method: • Cell culture: CDK12 NanoBRET assay kit was obtained from Reaction Biology with experiment performed by Pharmaron. HEK293 cells were cultured using 90% DMEM with 10% FBS. Cells were cultivated in T-75 flasks in a cell culture incubator set at 37° C., 5% CO^2, 95% relative humidity. Once cells reached 80-90% confluence, they were detached and split. Cultivated cells in T-75 flasks were rinsed with 5 mL PB and aspirated off. 1.5 mL trypsin was added and incubated at 37° C. for approximately 5 minutes or until the cells detached and started to float. Trypsin was inactivated by adding excess serum containing medium. • Transient Transfection of HEK293 Cells: Cell culture medium was removed from cell flask by aspiration and trypsinized, allowing cells to dissociate from flask. Trypsin was neutralized using cell culture medium and centrifuged at 200×g for 5 minutes to pellet cells. Medium was aspirated and resuspended in assay medium consisting of 99% Opti-MEM, reduced serum medium with no phenol red and 1% FBS. Density was adjusted to 2×10^5 cells/ml using assay medium. 10 μg/ml solution of DNA in Opti-MEM was prepared consisting of 9 μg/mL of CCNK, 1 ug/mL of Kinase-NanoLuc fusion vector DNA CDK12, and 1 mL of Opti-MEM. This solution was mixed thoroughly. 30 μl of FuGENE HD Transfection Reagent was added into each milliliter of DNA mixture to form lipid: DNA complex. Mixture was inverted 5-10 times and incubated at ambient temperature for 20 minutes to allow complexes to form. In a sterile, conical tub, 1 part of lipid DNA complex (1 mL) was mixed with 20 parts of HEK293 cells (20 mL) in suspension at 2×10^5 cells/mL. Tube was mixed gently by inversion 5 times. […] Lastly, 20 μL of this 3× complete substrate plus inhibitor solution was added to each well of the 384-well plate and incubated for 2-3 minutes at room temperature and read the plate on the Envision. • Calculation: BRET Ratio was calculated as follows: […]

T1 sequence (Q9NYV4 whole entry): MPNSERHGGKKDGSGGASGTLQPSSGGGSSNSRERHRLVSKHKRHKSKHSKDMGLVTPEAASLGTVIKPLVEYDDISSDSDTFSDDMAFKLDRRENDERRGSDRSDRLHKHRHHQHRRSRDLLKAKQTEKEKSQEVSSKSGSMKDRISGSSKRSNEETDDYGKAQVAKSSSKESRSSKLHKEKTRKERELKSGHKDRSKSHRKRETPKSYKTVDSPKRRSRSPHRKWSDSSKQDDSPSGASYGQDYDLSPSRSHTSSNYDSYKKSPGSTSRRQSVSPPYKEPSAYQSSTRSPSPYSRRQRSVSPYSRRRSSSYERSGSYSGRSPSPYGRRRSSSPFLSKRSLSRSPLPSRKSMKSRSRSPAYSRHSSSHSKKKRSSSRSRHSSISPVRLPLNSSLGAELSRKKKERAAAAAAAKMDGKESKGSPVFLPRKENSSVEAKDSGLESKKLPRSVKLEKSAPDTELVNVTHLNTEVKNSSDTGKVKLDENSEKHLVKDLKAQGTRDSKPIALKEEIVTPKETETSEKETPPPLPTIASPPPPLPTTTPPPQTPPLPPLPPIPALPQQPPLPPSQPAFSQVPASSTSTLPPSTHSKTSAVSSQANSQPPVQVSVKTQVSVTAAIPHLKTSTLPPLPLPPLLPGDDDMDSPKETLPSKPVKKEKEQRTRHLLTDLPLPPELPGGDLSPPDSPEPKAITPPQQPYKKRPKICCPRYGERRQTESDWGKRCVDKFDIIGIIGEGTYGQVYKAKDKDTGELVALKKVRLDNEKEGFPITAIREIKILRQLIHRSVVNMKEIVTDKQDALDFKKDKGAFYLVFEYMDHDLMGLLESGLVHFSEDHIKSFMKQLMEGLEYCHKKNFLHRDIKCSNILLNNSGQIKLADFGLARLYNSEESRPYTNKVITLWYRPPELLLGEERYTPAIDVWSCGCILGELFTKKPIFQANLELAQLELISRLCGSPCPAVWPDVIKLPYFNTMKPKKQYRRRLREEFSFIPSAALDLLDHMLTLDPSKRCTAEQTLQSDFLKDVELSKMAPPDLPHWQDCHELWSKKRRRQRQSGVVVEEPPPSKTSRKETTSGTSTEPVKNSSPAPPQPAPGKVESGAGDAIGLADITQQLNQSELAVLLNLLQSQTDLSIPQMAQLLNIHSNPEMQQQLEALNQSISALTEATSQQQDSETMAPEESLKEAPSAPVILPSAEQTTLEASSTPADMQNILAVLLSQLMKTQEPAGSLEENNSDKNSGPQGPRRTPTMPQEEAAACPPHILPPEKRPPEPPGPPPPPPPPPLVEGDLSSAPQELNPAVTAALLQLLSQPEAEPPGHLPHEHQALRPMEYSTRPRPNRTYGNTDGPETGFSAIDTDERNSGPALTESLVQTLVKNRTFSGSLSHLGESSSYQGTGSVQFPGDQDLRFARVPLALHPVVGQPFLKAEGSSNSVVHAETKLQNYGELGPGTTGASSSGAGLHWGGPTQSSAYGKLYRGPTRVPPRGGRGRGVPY
T1 sequence (O75909 whole entry partner): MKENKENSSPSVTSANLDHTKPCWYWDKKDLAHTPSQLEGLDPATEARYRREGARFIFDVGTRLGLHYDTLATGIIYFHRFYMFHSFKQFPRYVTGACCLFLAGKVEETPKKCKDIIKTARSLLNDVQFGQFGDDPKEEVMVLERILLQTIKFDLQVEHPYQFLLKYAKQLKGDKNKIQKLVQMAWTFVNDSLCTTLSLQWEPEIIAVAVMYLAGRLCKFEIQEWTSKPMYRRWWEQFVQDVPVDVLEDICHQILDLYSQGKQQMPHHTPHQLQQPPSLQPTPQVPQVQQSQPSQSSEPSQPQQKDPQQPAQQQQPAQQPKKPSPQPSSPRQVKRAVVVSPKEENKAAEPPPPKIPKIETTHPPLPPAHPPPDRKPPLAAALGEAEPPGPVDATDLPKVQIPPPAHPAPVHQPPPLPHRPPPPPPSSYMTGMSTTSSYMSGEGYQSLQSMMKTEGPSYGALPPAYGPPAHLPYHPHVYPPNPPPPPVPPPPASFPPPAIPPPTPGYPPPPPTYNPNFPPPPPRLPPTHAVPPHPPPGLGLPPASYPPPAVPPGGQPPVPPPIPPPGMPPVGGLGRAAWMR

SMILES	phenocopy of CDK12 knockout (cellular and structural changes) (CDK12 knockout)	phenocopy of RBM39 CRISPR/Cas9 knockout [1]	cell viability (OVCAR3 cells)	CDK12 kinase activity (CDK12+Cyclin K)
Nc1ccc(S(=O)(=O)Nc2cnc3c(Cl)cccc3n2)cc1 [CQS]	phenocopy CDK12 loss	phenocopy RNA-binding motif protein 39 (RBM39) CRISPR/Cas9 knockout	–	–
Cn1cc(-n2cnc3c(NCc4nc5cc(Cl)c(Cl)cc5[nH]4)nc(N4CCOCC4)nc32)cn1 [SR4835]	–	–	dose-dependent decreases in cell viability	–
CN(C)C/C=C/C(=O)Nc1ccc(C(=O)N2CCC[C@@H](Nc3ncc(Cl)c(-c4c[nH]c5ccccc45)n3)C2)cc1 [THZ531]	–	–	dose-dependent decreases in cell viability	dose-dependent inhibition of kinase function
NS(=O)(=O)c1ccc(S(=O)(=O)Nc2cccc3c(Cl)c[nH]c23)cc1 [indisulam]	phenocopy CDK12 loss	phenocopy RNA-binding motif protein 39 (RBM39) CRISPR/Cas9 knockout	minimal effect on cell viability	does not affect CDK12 kinase activity
O=C(NS(=O)(=O)c1ccc(Br)s1)c1ccc(Cl)cc1Cl [tasisulam]	phenocopy CDK12 loss	phenocopy RNA-binding motif protein 39 (RBM39) CRISPR/Cas9 knockout	–	–
